Target: T1, ALK C1156Y (Homo sapiens, UniProt Q9UM73, C1156Y)
T1 construct: purchased Thermo Fisher Scientific (Life Technologies) SelectScreen
Test: SelectScreen LanthaScreen
Type: binding
Conditions: read-out: % displacement
Summary of the method: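 SelectScreen broad panel; activity (Z'LYTE, Adapta) plus binding formats. ATP: Km app for CSF1R Z'LYTE; 10 for CAMK1 Adapta. Readout = % per kinase.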

T1 sequence (Q9UM73 19-1620 C1156Y): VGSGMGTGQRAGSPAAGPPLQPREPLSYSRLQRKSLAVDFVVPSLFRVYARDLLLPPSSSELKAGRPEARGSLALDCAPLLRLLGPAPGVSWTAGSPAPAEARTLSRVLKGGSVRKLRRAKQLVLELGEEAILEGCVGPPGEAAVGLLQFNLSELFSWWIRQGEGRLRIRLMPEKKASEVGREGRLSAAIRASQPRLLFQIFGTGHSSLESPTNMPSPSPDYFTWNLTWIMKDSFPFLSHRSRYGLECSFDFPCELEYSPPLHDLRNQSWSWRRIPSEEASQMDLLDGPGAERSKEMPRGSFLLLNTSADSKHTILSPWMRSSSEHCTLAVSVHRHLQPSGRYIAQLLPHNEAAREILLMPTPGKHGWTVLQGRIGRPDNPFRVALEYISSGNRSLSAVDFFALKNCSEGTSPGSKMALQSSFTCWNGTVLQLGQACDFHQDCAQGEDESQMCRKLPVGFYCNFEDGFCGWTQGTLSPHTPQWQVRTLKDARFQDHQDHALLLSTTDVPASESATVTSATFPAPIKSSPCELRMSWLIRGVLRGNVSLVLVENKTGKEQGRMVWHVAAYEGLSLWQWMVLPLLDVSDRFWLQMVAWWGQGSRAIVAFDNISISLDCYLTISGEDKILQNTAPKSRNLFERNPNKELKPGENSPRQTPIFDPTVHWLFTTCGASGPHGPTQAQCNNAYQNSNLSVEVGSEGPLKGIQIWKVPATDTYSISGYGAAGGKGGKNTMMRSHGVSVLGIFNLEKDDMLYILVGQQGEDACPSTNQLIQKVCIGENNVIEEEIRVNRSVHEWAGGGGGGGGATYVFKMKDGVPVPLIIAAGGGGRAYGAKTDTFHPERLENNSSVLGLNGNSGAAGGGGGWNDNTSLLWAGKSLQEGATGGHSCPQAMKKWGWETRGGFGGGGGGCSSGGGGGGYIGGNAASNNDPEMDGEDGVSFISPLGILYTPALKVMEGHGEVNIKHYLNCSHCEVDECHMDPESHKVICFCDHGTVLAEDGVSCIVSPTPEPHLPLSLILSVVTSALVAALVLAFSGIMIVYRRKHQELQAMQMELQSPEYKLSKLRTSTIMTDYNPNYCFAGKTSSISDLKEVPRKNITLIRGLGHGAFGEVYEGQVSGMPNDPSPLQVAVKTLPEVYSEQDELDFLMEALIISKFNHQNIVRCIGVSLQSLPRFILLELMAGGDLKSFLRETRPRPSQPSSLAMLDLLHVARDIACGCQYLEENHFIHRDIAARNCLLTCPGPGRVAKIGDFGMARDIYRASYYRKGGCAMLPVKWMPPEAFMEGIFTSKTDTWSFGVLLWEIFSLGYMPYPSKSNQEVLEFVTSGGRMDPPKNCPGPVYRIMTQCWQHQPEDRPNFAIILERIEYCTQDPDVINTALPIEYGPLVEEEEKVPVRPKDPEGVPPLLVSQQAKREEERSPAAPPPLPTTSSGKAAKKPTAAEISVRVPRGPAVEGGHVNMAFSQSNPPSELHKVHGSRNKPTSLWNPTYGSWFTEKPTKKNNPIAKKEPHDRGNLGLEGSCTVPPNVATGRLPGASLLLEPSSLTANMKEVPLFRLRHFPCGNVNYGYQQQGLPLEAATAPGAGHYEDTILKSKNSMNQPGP

## CN(C(=O)CN1CCOCC1)c1ccc2sc3c(-c4cccc5c(=O)cc(N6CC7CCC(C6)O7)oc45)cccc3c2c1 [NU5455]
  inhibition at 1 µM: 0.6%
